The text below walks through data of patent publication US20010051624A1, “Method and compositions for the treatment of allergic conditions using PGD2 receptor antagonists” (priority 2000, published 2001).

The experiment deals with ovalbumin-sensitized guinea pigs. The experiment in a line: Guinea pig allergic rhinitis model: intranasal pressure after nasal ovalbumin challenge. It counts as in vivo. As to conditions: 60 minutes prior to ovalbumin 1% challenge, AUC 0-30 min. As for the experimental part:
Male Hartley guinea pigs (250-500 g) purchased from Charles River (St-Constant, Qc, Canada) were used. They were housed in a temperature and humidity controlled environment, in groups of four or five with food and water available ad libitum. Experimental procedures were approved by the Animal Care Committee at Merck Frosst Centre for Therapeutic Research, in accordance with the guidelines of the Canadian Council on Animal Care.
Sensitization: The animals were injected intraperitoneally with 0.5 ml of an ovalbumin solution (100 μg/ml) containing 100 mg/ml aluminum hydroxide in 0.9% saline. […]
Following the surgical preparation, gallamine (2 mg/kg, i.v.) was administered to suppress spontaneous breathing. […] The changes in the intranasal pressure were monitored through a pressure transducer (Validyne DP-45, membrane 6-26, Validyne Corp., Northridge, Calif.) connected to a side arm of the nasal cannula. Values were recorded every 5 seconds using a data acquisition system (Modular Instruments, Malvern, Pa.). […]
The effects of test compounds were evaluated on the increased intranasal pressure following a nasal challenge with an aerosol of ovalbumin 1% for 3 minutes. […] The changes in intranasal pressure were recorded for the 30 minutes following the nasal challenge, using the peak response. […]

With `C[S@+]([O-])c1cccc2c3c(n(Cc4ccc(Cl)cc4)c12)[C@@H](CC(=O)O)CCC3` [Compound I, 2-[(1R)-9-(4-chlorobenzyl)-8-((S)-methylsulfinyl)-2,3,4,9-tetrahydro-1H-carbazol-1-yl]acetic acid], the “effect on the increase in intranasal pressure induced by ovalbumin aerosol” value (Compound I 1 mg/kg i.p. alone) was “no significant effect”.
With `COc1ccc(CN(CCN(C)C)c2ccccn2)cc1` [mepyramine], the “effect on the increase in intranasal pressure induced by ovalbumin aerosol” value (mepyramine 5 mg/kg i.p. alone) was “no significant effect”.
